# Results: ChEMBL document CHEMBL4308841, “Synthesis, in vitro antiproliferative activity, and kinase inhibitory effects of pyrazole-containing diarylureas and diarylamides” (Eur J Med Chem, 2018)
# Legend:
# Assay type in all cases: functional
# Hs-578T = test: Growth inhibition of human Hs578T cells assessed as cell growth at 10 uM incubated for 48 hrs by sulforhodamine B assay relative to control; details: read-out: Activity
# HOP-62 = test: Growth inhibition of human HOP62 cells assessed as cell growth at 10 uM incubated for 48 hrs by sulforhodamine B assay relative to control; details: HOP-62, 48 h, read-out: Activity
# MCF7 = test: Growth inhibition of human MCF7 cells assessed as cell growth at 10 uM incubated for 48 hrs by sulforhodamine B assay relative to control; details: MCF7, 48 h, read-out: Activity
# SR = test: Growth inhibition of human SR cells assessed as cell growth at 10 uM incubated for 48 hrs by sulforhodamine B assay relative to control; details: read-out: Activity
# SN12C = test: Growth inhibition of human SN12C cells assessed as cell growth at 10 uM incubated for 48 hrs by sulforhodamine B assay relative to control; details: read-out: Activity
# HL-60(TB) = test: Growth inhibition of human HL-60(TB) cells assessed as cell growth at 10 uM incubated for 48 hrs by sulforhodamine B assay relative to control; details: HL-60, 48 h, read-out: Activity
# UO-31 = test: Growth inhibition of human UO31 cells assessed as cell growth at 10 uM incubated for 48 hrs by sulforhodamine B assay relative to control; details: UO-31, 48 h, read-out: Activity
# A549 = test: Growth inhibition of human A549/ATCC cells assessed as cell growth at 10 uM incubated for 48 hrs by sulforhodamine B assay relative to control; details: A549, 48 h, read-out: Activity
# SF-268 = test: Growth inhibition of human SF268 cells assessed as cell growth at 10 uM incubated for 48 hrs by sulforhodamine B assay relative to control; details: SF-268, 48 h, read-out: Activity
# DU-145 = test: Growth inhibition of human DU145 cells assessed as cell growth at 10 uM incubated for 48 hrs by sulforhodamine B assay relative to control; details: DU-145, 48 h, read-out: Activity
# NCI/ADR-RES = test: Growth inhibition of human NCI/ADR-RES cells assessed as cell growth at 10 uM incubated for 48 hrs by sulforhodamine B assay relative to control; details: read-out: Activity
# OVCAR-3 = test: Growth inhibition of human OVCAR3 cells assessed as cell growth at 10 uM incubated for 48 hrs by sulforhodamine B assay relative to control; details: OVCAR-3, 48 h, read-out: Activity
# 786-0 = test: Growth inhibition of human 786-0 cells assessed as cell growth at 10 uM incubated for 48 hrs by sulforhodamine B assay relative to control; details: 786-0, 48 h, read-out: Activity
# RPMI-8226 = test: Growth inhibition of human RPMI8226 cells assessed as cell growth at 10 uM incubated for 48 hrs by sulforhodamine B assay relative to control; details: RPMI-8226, 48 h, read-out: Activity
# NCI-H460 = test: Growth inhibition of human NCI-H460 cells assessed as cell growth at 10 uM incubated for 48 hrs by sulforhodamine B assay relative to control; details: NCI-H460, 48 h, read-out: Activity
# MDA-MB-231 = test: Growth inhibition of human MDA-MB-231 cells assessed as cell growth at 10 uM incubated for 48 hrs by sulforhodamine B assay relative to control; details: MDA-MB-231, 48 h, read-out: Activity
# RXF 393 = test: Growth inhibition of human RXF393 cells assessed as cell growth at 10 uM incubated for 48 hrs by sulforhodamine B assay relative to control; details: RXF 393, 48 h, read-out: Activity
# PC-3 = test: Growth inhibition of human PC3 cells assessed as cell growth at 10 uM incubated for 48 hrs by sulforhodamine B assay relative to control; details: PC-3, 48 h, read-out: Activity
# SK-OV-3 = test: Growth inhibition of human SKOV3 cells assessed as cell growth at 10 uM incubated for 48 hrs by sulforhodamine B assay relative to control; details: SK-OV-3, 48 h, read-out: Activity
# NCI-H23 = test: Growth inhibition of human NCI-H23 cells assessed as cell growth at 10 uM incubated for 48 hrs by sulforhodamine B assay relative to control; details: NCI-H23, 48 h, read-out: Activity
# SNB-19 = test: Growth inhibition of human SNB19 cells assessed as cell growth at 10 uM incubated for 48 hrs by sulforhodamine B assay relative to control; details: SNB-19, 48 h, read-out: Activity
# KM12 = test: Growth inhibition of human KM12 cells assessed as cell growth at 10 uM incubated for 48 hrs by sulforhodamine B assay relative to control; details: KM12, 48 h, read-out: Activity
# ACHN = test: Growth inhibition of human ACHN cells assessed as cell growth at 10 uM incubated for 48 hrs by sulforhodamine B assay relative to control; details: read-out: Activity
# HCT-116 = test: Growth inhibition of human HCT116 cells assessed as cell growth at 10 uM incubated for 48 hrs by sulforhodamine B assay relative to control; details: HCT-116, 48 h, read-out: Activity
# A498 = test: Growth inhibition of human A498 cells assessed as cell growth at 10 uM incubated for 48 hrs by sulforhodamine B assay relative to control; details: A498, 48 h, read-out: Activity
# OVCAR-8 = test: Growth inhibition of human OVCAR8 cells assessed as cell growth at 10 uM incubated for 48 hrs by sulforhodamine B assay relative to control; details: OVCAR-8, 48 h, read-out: Activity
# OVCAR-4 = test: Growth inhibition of human OVCAR4 cells assessed as cell growth at 10 uM incubated for 48 hrs by sulforhodamine B assay relative to control; details: OVCAR-4, 48 h, read-out: Activity
# SF-539 = test: Growth inhibition of human SF539 cells assessed as cell growth at 10 uM incubated for 48 hrs by sulforhodamine B assay relative to control; details: SF-539, 48 h, read-out: Activity
# SW-620 = test: Growth inhibition of human SW620 cells assessed as cell growth at 10 uM incubated for 48 hrs by sulforhodamine B assay relative to control; details: SW-620, 48 h, read-out: Activity
# LOX IMVI = test: Growth inhibition of human LOXIMVI cells assessed as cell growth at 10 uM incubated for 48 hrs by sulforhodamine B assay relative to control; details: read-out: Activity
# SK-MEL-28 = test: Growth inhibition of human SK-MEL-28 cells assessed as cell growth at 10 uM incubated for 48 hrs by sulforhodamine B assay relative to control; details: SK-MEL-28, 48 h, read-out: Activity
# M14 = test: Growth inhibition of human M14 cells assessed as cell growth at 10 uM incubated for 48 hrs by sulforhodamine B assay relative to control; details: M14, 48 h, read-out: Activity
# SNB-75 = test: Growth inhibition of human SNB75 cells assessed as cell growth at 10 uM incubated for 48 hrs by sulforhodamine B assay relative to control; details: SNB-75, 48 h, read-out: Activity
Compound,growth at 10 µM (Hs-578T) [%],growth at 10 µM (HOP-62) [%],growth at 10 µM (MCF7) [%],growth at 10 µM (SR) [%],growth at 10 µM (SN12C) [%],growth at 10 µM (HL-60(TB)) [%],growth at 10 µM (UO-31) [%],growth at 10 µM (A549) [%],growth at 10 µM (SF-268) [%],growth at 10 µM (DU-145) [%],growth at 10 µM (NCI/ADR-RES) [%],growth at 10 µM (OVCAR-3) [%],growth at 10 µM (786-0) [%],growth at 10 µM (RPMI-8226) [%],growth at 10 µM (NCI-H460) [%],growth at 10 µM (MDA-MB-231) [%],growth at 10 µM (RXF 393) [%],growth at 10 µM (PC-3) [%],growth at 10 µM (SK-OV-3) [%],growth at 10 µM (NCI-H23) [%],further results
COc1cc(Cl)cc(-c2nn(-c3cccc(NC(=O)Nc4cccc(C(F)(F)F)c4)c3)cc2-c2ccncc2)c1,23.1,15.5,0.3,-13.5,13.9,-7.89,-4.59,8.08,27.9,15.9,3.58,-0.41,13.2,-14.2,-6.11,-9.21,11.8,-9.92,14.2,-5.1,growth at 10 µM (SNB-19): 16.1%; growth at 10 µM (KM12): 9.81%; growth at 10 µM (ACHN): 5.44%; growth at 10 µM (HCT-116): 5.07%; growth at 10 µM (A498): -6.74%; growth at 10 µM (OVCAR-8): -12.3%; growth at 10 µM (OVCAR-4): 3.28%; growth at 10 µM (SF-539): 17%; growth at 10 µM (SW-620): 11.2%; growth at 10 µM (LOX IMVI): 4.64%; growth at 10 µM (SK-MEL-28): 14.1%; growth at 10 µM (M14): 9.99%; growth at 10 µM (SNB-75): 12.5%
COc1cc(Cl)cc(-c2nn(-c3cccc(NC(=O)c4ccc(N5CCOCC5)c(C(F)(F)F)c4)c3)cc2-c2ccncc2)c1,40.7,52.1,45.3,18.4,79.8,2.73,40.7,45.5,67.3,93.3,46.1,69.4,43.1,25.2,29.3,11.4,12.4,29.1,75.7,79,growth at 10 µM (SNB-19): 75.5%; growth at 10 µM (KM12): 38.4%; growth at 10 µM (ACHN): 50.1%; growth at 10 µM (HCT-116): 47.8%; growth at 10 µM (A498): 31.4%; growth at 10 µM (OVCAR-8): 42.1%; growth at 10 µM (OVCAR-4): 67.9%; growth at 10 µM (SF-539): 52.1%; growth at 10 µM (SW-620): 69.2%; growth at 10 µM (LOX IMVI): 47.3%; growth at 10 µM (SK-MEL-28): 53.2%; growth at 10 µM (M14): 56.7%; growth at 10 µM (SNB-75): 34.9%
O=C(Nc1cccc(-n2cc(-c3ccncc3)c(-c3cc(O)cc(Cl)c3)n2)c1)Nc1ccc(Cl)c(C(F)(F)F)c1,21.7,8.99,13.4,-30.6,34.6,-26.9,18.5,8.81,42.1,18.7,41.5,1.88,-29.8,13.8,3.75,-47.3,-49.5,5.34,63.1,10.5,growth at 10 µM (SNB-19): 44.5%; growth at 10 µM (KM12): 15.1%; growth at 10 µM (ACHN): 21.3%; growth at 10 µM (HCT-116): 6.95%; growth at 10 µM (A498): 21.5%; growth at 10 µM (OVCAR-8): 3.69%; growth at 10 µM (OVCAR-4): 31.6%; growth at 10 µM (SF-539): 32.6%; growth at 10 µM (SW-620): -33.6%; growth at 10 µM (LOX IMVI): 2.08%; growth at 10 µM (SK-MEL-28): -13.5%; growth at 10 µM (M14): -16.8%; growth at 10 µM (SNB-75): 24.1%
COc1cc(Cl)cc(-c2nn(-c3cccc(NC(=O)Nc4ccc(Cl)c(C(F)(F)F)c4)c3)cc2-c2ccncc2)c1,14.6,13.5,2.57,-27.5,13.8,-9.59,11.1,5.2,22.9,15.2,6.07,-22.6,-4.76,-29.1,2.76,-30.8,-29.9,-13,11.9,0.3,growth at 10 µM (SNB-19): 28.1%; growth at 10 µM (KM12): 9.1%; growth at 10 µM (ACHN): 8.78%; growth at 10 µM (HCT-116): 3.39%; growth at 10 µM (A498): -9.18%; growth at 10 µM (OVCAR-8): 8.71%; growth at 10 µM (OVCAR-4): 16.6%; growth at 10 µM (SF-539): -1.17%; growth at 10 µM (SW-620): 12.7%; growth at 10 µM (LOX IMVI): 4.81%; growth at 10 µM (SK-MEL-28): 23.6%; growth at 10 µM (M14): 3.99%; growth at 10 µM (SNB-75): 14.5%
COc1cc(Cl)cc(-c2nn(-c3cccc(NC(=O)Nc4cc(C(F)(F)F)cc(C(F)(F)F)c4)c3)cc2-c2ccncc2)c1,5.82,-41,3.81,-37.9,9.32,-20.1,-0.18,5.14,14.2,13.1,2.37,-1.62,-26.9,-17.5,0.24,-75,-29.2,-6.27,6.84,-6.14,growth at 10 µM (SNB-19): 26.1%; growth at 10 µM (KM12): 12.2%; growth at 10 µM (ACHN): 10.3%; growth at 10 µM (HCT-116): -4.6%; growth at 10 µM (A498): -21.6%; growth at 10 µM (OVCAR-8): -2.46%; growth at 10 µM (OVCAR-4): 11.8%; growth at 10 µM (SF-539): -17.7%; growth at 10 µM (SW-620): 7.18%; growth at 10 µM (LOX IMVI): -24%; growth at 10 µM (SK-MEL-28): 6.55%; growth at 10 µM (M14): 1.22%; growth at 10 µM (SNB-75): 11.3%
